Experimental data reported in ChEMBL document CHEMBL5465560, “Selectivity Literature for EUbOPEN Chemogenomic Library” (2024).

What was measured:
[1] = molecular target: Mitotic checkpoint serine/threonine-protein kinase BUB1 (Homo sapiens, UniProt O43683); assay: Selectivity interaction (KinomeScan (DiscoverX)) EUB0001049a BUB1; conditions: at 1 µM
[2] = molecular target: T1, Tyrosine-protein kinase Tec (Homo sapiens) (UniProt P42680); assay: Selectivity interaction (KinomeScan (DiscoverX)) EUB0001049a TEC; conditions: at 1 µM
T1 sequence (whole entry): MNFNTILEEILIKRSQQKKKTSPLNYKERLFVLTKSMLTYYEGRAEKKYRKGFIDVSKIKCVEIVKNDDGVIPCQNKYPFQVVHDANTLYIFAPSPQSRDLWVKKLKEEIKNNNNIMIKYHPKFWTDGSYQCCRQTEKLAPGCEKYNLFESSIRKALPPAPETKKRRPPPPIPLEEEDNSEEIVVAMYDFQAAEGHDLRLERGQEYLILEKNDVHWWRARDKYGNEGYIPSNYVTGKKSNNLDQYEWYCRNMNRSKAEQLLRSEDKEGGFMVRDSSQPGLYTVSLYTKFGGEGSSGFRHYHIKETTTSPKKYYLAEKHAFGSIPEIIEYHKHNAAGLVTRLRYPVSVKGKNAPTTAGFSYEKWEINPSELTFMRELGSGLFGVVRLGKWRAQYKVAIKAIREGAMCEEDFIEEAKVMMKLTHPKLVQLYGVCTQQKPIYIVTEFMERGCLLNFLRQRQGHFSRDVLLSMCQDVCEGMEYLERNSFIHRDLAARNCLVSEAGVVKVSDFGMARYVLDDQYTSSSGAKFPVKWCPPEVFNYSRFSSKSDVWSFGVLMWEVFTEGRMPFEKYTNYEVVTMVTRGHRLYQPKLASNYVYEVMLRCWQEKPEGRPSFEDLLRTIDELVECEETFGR

[3] = molecular target: T2, Mitogen-activated protein kinase kinase kinase 5 (Homo sapiens) (UniProt Q99683); assay: Selectivity interaction (ActivX KiNativ screen (kinase selectivity in THP-1 cell lysates)) EUB0000639a MAP3K5; type: subcellular; conditions: lysate
T2 sequence (whole entry): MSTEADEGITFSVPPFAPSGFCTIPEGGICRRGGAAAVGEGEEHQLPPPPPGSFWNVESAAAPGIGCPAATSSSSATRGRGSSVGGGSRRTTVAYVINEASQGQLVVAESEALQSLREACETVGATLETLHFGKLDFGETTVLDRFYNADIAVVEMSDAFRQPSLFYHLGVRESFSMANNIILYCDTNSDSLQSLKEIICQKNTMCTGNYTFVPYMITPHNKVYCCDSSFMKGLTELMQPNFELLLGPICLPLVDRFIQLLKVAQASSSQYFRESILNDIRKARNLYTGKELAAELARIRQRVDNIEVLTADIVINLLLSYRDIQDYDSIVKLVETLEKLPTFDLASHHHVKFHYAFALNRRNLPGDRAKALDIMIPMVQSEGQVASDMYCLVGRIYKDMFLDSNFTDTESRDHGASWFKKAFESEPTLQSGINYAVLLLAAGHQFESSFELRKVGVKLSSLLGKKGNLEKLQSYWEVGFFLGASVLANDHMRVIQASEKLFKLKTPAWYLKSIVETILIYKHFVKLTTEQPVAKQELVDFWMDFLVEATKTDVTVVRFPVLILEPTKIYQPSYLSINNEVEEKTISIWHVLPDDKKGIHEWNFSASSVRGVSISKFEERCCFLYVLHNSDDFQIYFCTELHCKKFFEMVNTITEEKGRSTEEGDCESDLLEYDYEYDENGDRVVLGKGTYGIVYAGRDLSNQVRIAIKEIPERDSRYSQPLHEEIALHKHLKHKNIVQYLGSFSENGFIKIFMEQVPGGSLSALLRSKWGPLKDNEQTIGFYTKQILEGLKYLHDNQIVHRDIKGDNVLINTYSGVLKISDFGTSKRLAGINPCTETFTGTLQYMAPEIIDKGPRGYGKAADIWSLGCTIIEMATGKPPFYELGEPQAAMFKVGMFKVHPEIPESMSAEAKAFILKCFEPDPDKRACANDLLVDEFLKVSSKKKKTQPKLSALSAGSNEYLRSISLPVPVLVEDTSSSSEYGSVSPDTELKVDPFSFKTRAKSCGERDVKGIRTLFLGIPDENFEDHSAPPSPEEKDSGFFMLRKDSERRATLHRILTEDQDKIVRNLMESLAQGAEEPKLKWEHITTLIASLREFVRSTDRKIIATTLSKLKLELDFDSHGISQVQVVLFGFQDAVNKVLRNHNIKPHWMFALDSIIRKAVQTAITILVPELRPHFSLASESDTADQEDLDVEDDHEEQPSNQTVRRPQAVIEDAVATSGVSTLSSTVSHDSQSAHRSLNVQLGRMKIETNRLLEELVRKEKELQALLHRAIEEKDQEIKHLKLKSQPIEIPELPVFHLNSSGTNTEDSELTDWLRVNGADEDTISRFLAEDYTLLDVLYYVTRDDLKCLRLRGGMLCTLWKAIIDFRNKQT

[4] = molecular target: CDK4/Cyclin D3 (Homo sapiens) (UniProt P11802+P30281); assay: (§1) Selectivity interaction (KinomeScan (DiscoverX)) EUB0000595a CDK4; type: protein-complex assay; conditions: at 10 µM
[5] = molecular target: Cyclin-dependent kinase 4/cyclin D1 (Homo sapiens) (UniProt P11802+P24385); assay: as §1; type: protein-complex assay; conditions: at 10 µM
[6] = molecular target: T3, Serine/threonine-protein kinase 17B (Homo sapiens) (UniProt O94768); assay: Selectivity interaction (KinomeScan (DiscoverX)) EUB0000092b STK17B; conditions: at 10 µM
T3 sequence (whole entry): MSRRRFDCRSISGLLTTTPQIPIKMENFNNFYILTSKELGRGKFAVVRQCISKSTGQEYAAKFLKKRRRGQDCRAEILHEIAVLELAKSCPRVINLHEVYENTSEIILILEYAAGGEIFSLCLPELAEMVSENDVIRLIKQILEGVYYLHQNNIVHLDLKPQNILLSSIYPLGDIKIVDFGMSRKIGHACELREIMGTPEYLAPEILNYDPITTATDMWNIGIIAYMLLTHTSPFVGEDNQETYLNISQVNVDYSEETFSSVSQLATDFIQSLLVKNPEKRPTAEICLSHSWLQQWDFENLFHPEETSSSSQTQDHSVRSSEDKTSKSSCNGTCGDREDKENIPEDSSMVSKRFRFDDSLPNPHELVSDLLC

[7] = molecular target: Vascular endothelial growth factor receptor 2 (Homo sapiens, UniProt P35968); assay: Selectivity interaction (Ambit KINOMEscan and KiNATiv profiling in Jurkat cells) EUB0000090b KDR; type: cell-based; conditions: at 1 µM
[8] = molecular target: Serine/threonine-protein kinase PLK1 (Homo sapiens, UniProt P53350); assay: Selectivity interaction (KinomeScan (DiscoverX)) EUB0000618a PLK1; conditions: at 10 µM
[9] = molecular target: Mitogen-activated protein kinase 11 (Homo sapiens) (UniProt Q15759); assay: Selectivity interaction (KinomeScan (DiscoverX)) EUB0000607a MAPK11; conditions: at 10 µM
[10] = molecular target: Death-associated protein kinase 1 (Homo sapiens, UniProt P53355); assay: Selectivity interaction (ProQinase) EUB0000171b DAPK1
Chain of Death-associated protein kinase 1 (P53355 whole entry, looked up): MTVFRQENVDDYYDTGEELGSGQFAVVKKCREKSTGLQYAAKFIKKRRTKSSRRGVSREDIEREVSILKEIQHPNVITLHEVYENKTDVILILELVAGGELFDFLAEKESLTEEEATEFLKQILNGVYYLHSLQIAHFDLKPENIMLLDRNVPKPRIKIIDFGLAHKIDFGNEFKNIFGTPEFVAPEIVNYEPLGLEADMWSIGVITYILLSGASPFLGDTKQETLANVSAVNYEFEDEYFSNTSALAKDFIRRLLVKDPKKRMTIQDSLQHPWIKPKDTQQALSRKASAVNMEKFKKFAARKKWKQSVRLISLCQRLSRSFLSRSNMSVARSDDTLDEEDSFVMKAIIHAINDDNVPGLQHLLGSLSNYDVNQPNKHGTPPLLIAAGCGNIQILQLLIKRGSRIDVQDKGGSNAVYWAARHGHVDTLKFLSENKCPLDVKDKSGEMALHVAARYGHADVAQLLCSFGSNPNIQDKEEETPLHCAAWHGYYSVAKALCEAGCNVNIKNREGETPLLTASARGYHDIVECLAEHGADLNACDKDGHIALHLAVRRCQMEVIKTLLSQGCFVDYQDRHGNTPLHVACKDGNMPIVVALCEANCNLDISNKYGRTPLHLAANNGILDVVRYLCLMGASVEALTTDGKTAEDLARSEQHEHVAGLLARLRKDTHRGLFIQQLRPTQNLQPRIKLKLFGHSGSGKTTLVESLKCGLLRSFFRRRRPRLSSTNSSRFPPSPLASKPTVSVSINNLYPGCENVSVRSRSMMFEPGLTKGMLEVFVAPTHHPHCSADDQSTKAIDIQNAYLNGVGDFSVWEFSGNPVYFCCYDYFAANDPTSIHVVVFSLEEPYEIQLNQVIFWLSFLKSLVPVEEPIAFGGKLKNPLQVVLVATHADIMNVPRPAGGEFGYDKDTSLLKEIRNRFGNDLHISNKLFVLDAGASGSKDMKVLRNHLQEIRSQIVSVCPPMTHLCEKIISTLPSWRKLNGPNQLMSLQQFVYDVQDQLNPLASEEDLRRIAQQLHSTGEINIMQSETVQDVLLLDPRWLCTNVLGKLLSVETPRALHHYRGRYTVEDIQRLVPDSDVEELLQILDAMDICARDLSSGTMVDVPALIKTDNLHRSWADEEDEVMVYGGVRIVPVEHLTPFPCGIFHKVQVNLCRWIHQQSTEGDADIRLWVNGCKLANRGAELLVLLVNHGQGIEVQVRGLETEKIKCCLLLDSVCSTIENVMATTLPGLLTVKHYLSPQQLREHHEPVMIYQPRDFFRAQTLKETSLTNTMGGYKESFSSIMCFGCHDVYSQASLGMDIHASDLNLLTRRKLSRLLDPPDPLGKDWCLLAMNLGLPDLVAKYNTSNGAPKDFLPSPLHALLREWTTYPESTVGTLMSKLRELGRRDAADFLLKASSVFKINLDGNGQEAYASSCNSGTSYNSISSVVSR

Chain of Serine/threonine-protein kinase PLK1 (P53350 whole entry): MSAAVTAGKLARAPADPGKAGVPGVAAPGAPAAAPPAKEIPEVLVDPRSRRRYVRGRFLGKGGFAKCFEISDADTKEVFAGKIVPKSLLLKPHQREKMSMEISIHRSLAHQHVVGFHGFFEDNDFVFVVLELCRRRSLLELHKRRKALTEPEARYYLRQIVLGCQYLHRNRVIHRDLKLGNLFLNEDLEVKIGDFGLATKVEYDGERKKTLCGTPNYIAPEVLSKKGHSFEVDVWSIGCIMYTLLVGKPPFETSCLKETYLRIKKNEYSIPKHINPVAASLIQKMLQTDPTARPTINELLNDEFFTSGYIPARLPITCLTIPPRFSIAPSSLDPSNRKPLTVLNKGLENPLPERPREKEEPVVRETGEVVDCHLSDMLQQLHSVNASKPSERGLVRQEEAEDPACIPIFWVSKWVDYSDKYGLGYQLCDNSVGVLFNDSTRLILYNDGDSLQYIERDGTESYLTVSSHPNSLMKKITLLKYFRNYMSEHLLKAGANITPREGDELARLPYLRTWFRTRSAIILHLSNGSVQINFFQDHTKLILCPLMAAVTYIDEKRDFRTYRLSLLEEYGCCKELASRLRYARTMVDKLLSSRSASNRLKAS
Chain of Mitotic checkpoint serine/threonine-protein kinase BUB1 (O43683 whole entry, looked up): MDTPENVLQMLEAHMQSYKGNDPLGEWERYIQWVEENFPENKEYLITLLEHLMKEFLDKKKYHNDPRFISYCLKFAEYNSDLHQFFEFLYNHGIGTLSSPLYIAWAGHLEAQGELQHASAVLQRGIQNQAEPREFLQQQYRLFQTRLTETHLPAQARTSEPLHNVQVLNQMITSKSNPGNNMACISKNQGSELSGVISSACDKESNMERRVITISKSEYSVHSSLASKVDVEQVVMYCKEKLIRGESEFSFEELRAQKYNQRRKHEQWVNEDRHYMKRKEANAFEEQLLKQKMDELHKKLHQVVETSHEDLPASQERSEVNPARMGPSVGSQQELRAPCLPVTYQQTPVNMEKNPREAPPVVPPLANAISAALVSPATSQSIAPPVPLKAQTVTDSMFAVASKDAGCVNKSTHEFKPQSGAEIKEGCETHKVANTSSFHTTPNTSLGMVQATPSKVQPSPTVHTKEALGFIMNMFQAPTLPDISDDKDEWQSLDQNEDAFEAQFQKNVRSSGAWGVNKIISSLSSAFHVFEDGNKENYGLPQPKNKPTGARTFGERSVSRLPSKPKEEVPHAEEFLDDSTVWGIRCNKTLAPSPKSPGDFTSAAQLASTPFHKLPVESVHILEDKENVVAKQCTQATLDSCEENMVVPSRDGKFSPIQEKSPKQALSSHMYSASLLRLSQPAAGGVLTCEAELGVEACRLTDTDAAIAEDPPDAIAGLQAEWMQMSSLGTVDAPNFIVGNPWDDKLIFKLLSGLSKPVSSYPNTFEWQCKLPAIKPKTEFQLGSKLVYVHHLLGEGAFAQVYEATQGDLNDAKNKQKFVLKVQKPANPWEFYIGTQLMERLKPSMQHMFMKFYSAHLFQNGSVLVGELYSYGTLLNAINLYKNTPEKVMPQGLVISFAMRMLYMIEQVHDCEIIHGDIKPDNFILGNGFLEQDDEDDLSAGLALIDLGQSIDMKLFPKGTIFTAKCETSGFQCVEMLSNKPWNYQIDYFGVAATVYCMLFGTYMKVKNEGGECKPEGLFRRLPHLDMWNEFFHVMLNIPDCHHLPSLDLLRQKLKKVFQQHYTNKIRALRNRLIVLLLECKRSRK
Chain of Vascular endothelial growth factor receptor 2 (P35968 whole entry): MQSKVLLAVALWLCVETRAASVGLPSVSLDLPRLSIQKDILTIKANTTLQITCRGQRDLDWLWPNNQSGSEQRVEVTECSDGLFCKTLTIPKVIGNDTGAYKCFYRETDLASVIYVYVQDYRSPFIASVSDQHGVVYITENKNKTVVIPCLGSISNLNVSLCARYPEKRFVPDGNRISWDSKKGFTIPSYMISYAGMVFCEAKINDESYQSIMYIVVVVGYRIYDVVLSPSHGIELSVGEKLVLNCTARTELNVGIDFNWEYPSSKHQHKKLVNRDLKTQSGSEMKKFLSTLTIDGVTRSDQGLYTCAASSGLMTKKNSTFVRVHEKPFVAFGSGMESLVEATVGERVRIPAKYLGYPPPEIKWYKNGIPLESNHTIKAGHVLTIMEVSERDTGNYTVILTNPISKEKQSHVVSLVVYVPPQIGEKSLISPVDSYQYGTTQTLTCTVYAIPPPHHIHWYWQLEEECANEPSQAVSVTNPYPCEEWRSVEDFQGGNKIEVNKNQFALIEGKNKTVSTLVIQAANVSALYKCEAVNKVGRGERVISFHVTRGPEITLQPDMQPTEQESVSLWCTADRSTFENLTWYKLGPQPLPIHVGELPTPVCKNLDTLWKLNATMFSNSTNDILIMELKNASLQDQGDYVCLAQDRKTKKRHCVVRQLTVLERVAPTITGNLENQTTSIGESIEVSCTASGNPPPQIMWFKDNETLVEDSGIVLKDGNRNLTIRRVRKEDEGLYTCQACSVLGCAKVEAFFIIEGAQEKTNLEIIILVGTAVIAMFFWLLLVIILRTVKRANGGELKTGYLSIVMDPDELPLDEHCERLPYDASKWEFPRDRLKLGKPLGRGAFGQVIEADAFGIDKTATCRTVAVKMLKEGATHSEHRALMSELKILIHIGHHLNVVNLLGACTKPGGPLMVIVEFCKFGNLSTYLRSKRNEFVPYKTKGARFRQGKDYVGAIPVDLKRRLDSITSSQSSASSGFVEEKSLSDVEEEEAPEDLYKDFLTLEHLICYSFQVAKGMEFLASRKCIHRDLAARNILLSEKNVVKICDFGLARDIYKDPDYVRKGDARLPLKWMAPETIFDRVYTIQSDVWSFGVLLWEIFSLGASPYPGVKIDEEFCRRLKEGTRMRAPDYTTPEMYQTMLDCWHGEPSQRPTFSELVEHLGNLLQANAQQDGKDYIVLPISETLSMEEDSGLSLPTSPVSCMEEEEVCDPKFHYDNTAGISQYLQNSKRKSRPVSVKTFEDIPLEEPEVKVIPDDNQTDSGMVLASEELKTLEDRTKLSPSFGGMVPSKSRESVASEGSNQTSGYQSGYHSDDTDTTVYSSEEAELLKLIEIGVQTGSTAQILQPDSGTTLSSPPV
Chain of Mitogen-activated protein kinase 11 (Homo sapiens) (Q15759 whole entry): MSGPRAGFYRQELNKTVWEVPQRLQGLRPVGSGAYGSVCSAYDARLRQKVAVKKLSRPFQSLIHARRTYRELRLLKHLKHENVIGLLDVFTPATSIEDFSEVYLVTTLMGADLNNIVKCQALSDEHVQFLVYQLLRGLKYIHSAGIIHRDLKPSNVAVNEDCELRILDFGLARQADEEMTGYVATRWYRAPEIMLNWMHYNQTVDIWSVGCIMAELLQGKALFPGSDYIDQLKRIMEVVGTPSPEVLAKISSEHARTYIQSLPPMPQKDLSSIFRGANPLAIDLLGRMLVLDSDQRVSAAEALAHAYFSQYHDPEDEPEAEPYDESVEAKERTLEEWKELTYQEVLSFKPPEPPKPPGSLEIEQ

**Q.** Which results are given for `COc1cc(Nc2nc(C)cc(-c3cnn4nc(OC)ccc34)n2)cc(C(F)(F)F)c1`?
**A.** % of control [1]: 67%; % of control [2]: 78%

**Q.** Which results are given for `CC[C@@H]1[C@H](F)C(=O)N[C@@H]1COc1nccc2cc(C(N)=O)c(OC)cc12` [ZIMLOVISERTIB]?
**A.** % of inhibition ([3]; at 0.01 µM): -12.1%; % of inhibition ([3]; at 0.04 µM): -3.2%; % of inhibition ([3]; at 0.2 µM): 0%; % of inhibition ([3]; at 1 µM): -6.5%; % of inhibition ([3]; at 5 µM): -21.9%

**Q.** For `COCC(=O)NC/C=C/c1ccc2ncnc(Nc3ccc(Oc4ccc(C)nc4)c(C)c3)c2c1` [CP-724714], which % of control [4] is on record?
**A.** 100%

**Q.** What about the % of control [5] of the same compound?
**A.** 100%

**Q.** With `CCC(=O)N1CCN(c2ccc(-n3c(=O)ccc4cnc5ccc(-c6cnc7ccccc7c6)cc5c43)cc2C(F)(F)F)CC1` as the compound, how does the % of control [6] read?
**A.** 67%

**Q.** Which % of control [7] does the source give for `CN(C)C/C=C/C(=O)Nc1ccc(C(=O)N2CCCC(Nc3ncc(Cl)c(-c4c[nH]c5ccccc45)n3)C2)cc1` (stereo not given) here?
**A.** 86%

**Q.** `O[C@H]1CC[C@H](Nc2ncc3nc(Nc4c(F)cc(F)cc4F)n([C@H]4CCOC4)c3n2)CC1` was tested. Which % of control [8] did it give?
**A.** 100%

**Q.** For `CNC(=O)Nc1ccc(-c2nc(N3CC4CCC(C3)O4)c3cnn(C4CCC5(CC4)OCCO5)c3n2)cc1`, which % of control [9] is on record?
**A.** 100%

**Q.** Which results are given for `C=CC(=O)Nc1cccc(C(=O)Nc2ccc(Nc3cc(-c4[nH]c(SC)nc4C)ccn3)cc2)c1`?
**A.** % of control ([10]; at 1 µM): 100%; % of control ([10]; at 5 µM): 94%
